In the NIST ThermoML archive (doi:10.1016/j.jct.2016.07.005):

Assay: refractive index (Na D-line) (dimensionless); xn = mol fraction of the nth substance listed
Settings: 100 kPa, Liquid, Standard Abbe refractometry

CN1CCC[C@H]1c1cccnc1 [(-)-3-(N-methylpyrrolidino)pyridine] + CC(O)CO
refractive index
Settings	x1 = 0.1	x1 = 0.2009	x1 = 0.3	x1 = 0.4016	x1 = 0.5	x1 = 0.6005	x1 = 0.7	x1 = 0.7983	x1 = 0.9	x1 = 1
293.15 K	1.45151	1.46746	1.48003	1.4907	1.49923	1.50631	1.51219	1.51744	1.52199	1.52665
298.15 K	1.44969	1.4656	1.47804	1.48864	1.49711	1.50413	1.50997	1.5152	1.51971	1.52439
303.15 K	1.448	1.46377	1.47612	1.48662	1.49496	1.50195	1.50774	1.51296	1.51749	1.52214
308.15 K	1.44622	1.46193	1.47424	1.48462	1.49301	1.49987	1.50568	1.51076	1.5153	1.51988
313.15 K	1.44441	1.46029	1.4723	1.48255	1.49092	1.49774	1.50345	1.5087	1.51312	1.5179
318.15 K	1.44265	1.45843	1.47031	1.48043	1.48871	1.49555	1.50118	1.50651	1.511	1.51592
323.15 K	1.44081	1.45653	1.46833	1.47837	1.48665	1.49341	1.49904	1.50435	1.50881	1.51373

CN1CCC[C@H]1c1cccnc1 [(-)-3-(N-methylpyrrolidino)pyridine] + CCC(C)O
refractive index
Settings	x1 = 0.1	x1 = 0.2036	x1 = 0.3	x1 = 0.4	x1 = 0.5	x1 = 0.6	x1 = 0.6956	x1 = 0.8	x1 = 0.9	x1 = 1
293.15 K	1.41889	1.43839	1.4542	1.46843	1.48084	1.49173	1.50103	1.51029	1.51858	1.52665
298.15 K	1.41668	1.43618	1.45199	1.46621	1.47864	1.48952	1.4988	1.50803	1.51632	1.52439
303.15 K	1.41438	1.43393	1.44972	1.46397	1.47644	1.48735	1.49664	1.50585	1.5141	1.52214
308.15 K	1.41211	1.43166	1.44747	1.46172	1.4742	1.48511	1.49439	1.50359	1.51184	1.51988
313.15 K	1.40979	1.42936	1.44519	1.45945	1.47192	1.48284	1.49217	1.50145	1.50978	1.5179
318.15 K	1.40753	1.4271	1.44297	1.45725	1.46971	1.48065	1.49001	1.49933	1.50772	1.51592
323.15 K	1.40509	1.42476	1.44065	1.45496	1.46747	1.47843	1.48779	1.49711	1.5055	1.51373

CN1CCC[C@H]1c1cccnc1 [(-)-3-(N-methylpyrrolidino)pyridine] + CCCCO
refractive index
Settings	x1 = 0.1	x1 = 0.196	x1 = 0.3	x1 = 0.3931	x1 = 0.5	x1 = 0.593	x1 = 0.7	x1 = 0.7931	x1 = 0.9	x1 = 1
293.15 K	1.42126	1.44053	1.45673	1.46978	1.48302	1.49254	1.50289	1.51169	1.51909	1.52665
298.15 K	1.41913	1.43825	1.45448	1.46759	1.48076	1.49031	1.50065	1.50945	1.51685	1.52439
303.15 K	1.41697	1.43598	1.45225	1.46538	1.47856	1.48808	1.49847	1.50721	1.51463	1.52214
308.15 K	1.41481	1.43367	1.45	1.46318	1.4763	1.48583	1.49623	1.50495	1.51238	1.51988
313.15 K	1.4127	1.43148	1.44779	1.46096	1.47404	1.48355	1.49404	1.5028	1.51035	1.5179
318.15 K	1.41058	1.42931	1.44562	1.45876	1.47184	1.48131	1.49183	1.50058	1.50823	1.51592
323.15 K	1.40842	1.42705	1.44337	1.45655	1.46958	1.47906	1.48961	1.49837	1.50604	1.51373

CN1CCC[C@H]1c1cccnc1 [(-)-3-(N-methylpyrrolidino)pyridine] + OCCCO
refractive index
Settings	x1 = 0.1	x1 = 0.1999	x1 = 0.3	x1 = 0.3994	x1 = 0.5	x1 = 0.6004	x1 = 0.7	x1 = 0.8	x1 = 0.9	x1 = 1
293.15 K	1.45763	1.47282	1.48522	1.49551	1.50314	1.50913	1.51461	1.51947	1.5228	1.52665
298.15 K	1.4561	1.47118	1.4835	1.49364	1.50131	1.50702	1.51264	1.51729	1.52064	1.52439
303.15 K	1.45463	1.46959	1.48179	1.49178	1.49939	1.5052	1.51056	1.51508	1.51845	1.52214
308.15 K	1.45312	1.46793	1.48	1.48991	1.49739	1.50305	1.50843	1.51294	1.51623	1.51988
313.15 K	1.45171	1.46637	1.47831	1.48799	1.49571	1.50113	1.50703	1.51089	1.51476	1.5179
318.15 K	1.45006	1.46458	1.4764	1.48604	1.49341	1.49907	1.50429	1.50872	1.51216	1.51592
323.15 K	1.44849	1.46287	1.4746	1.48415	1.49147	1.49703	1.50221	1.5066	1.50996	1.51373
